Experimental data as given in US9499492B2, “4-(ortho)-fluorophenyl-5-fluoropyrimidin-2-yl amines containing a sulfoximine group” (BAYER PHARMA AKTIENGESELLSCHAFT, priority 2012, dated 2016).
Where two headings read alike, the source gives them in different places.

Experiments:
[1] = test system: A2780, human ovarian carcinoma cells; experiment: Proliferation assay, A2780 (Method 3); format: cell-based; settings: A2780, 4 days, crystal violet, read-out: Inhibition of A2780 cell proliferation IC50
Protocol: (§1) After 24 hours, the cells of one plate (zero-point plate) were stained with crystal violet (see below), while the medium of the other plates was replaced by fresh culture medium (200 μl), to which the test substances were added in various concentrations (0 μM, as well as in the range of 0.001-10 μM; the final concentration of the solvent dimethyl sulfoxide was 0.5%). The cells were incubated for 4 days in the presence of test substances. Cell proliferation was determined by staining the cells with crystal violet: the cells were fixed by adding 20 μl/measuring point of an 11% glutaric aldehyde solution for 15 minutes at room temperature. After three washing cycles of the fixed cells with water, the plates were dried at room temperature. The cells were stained by adding 100 μl/measuring point of a 0.1% crystal violet solution (pH 3.0). After three washing cycles of the stained cells with water, the plates were dried at room temperature. The dye was dissolved by adding 100 μl/measuring point of a 10% acetic acid solution. The extinction was determined by photometry at a wavelength of 595 nm. The change of cell number, in percent, was calculated by normalization of the measured values to the extinction values of the zero-point plate (=0%) and the extinction of the untreated (0 μm) cells (=100%).

[2] = test system: HeLa, human cervical tumour cells; experiment: Proliferation assay, HeLa (Method 3); format: cell-based; settings: 4 days, crystal violet, read-out: Inhibition of HeLa cell proliferation IC50
Protocol: as §1

[3] = test system: MOLM-13 human acute myeloid leukemia cells; experiment: Proliferation assay, MOLM-13 (Cell Titre-Glo, Method 3); format: cell-based; settings: MOLM-13, 72-hour exposure, read-out: Inhibition of MOLM-13 cell proliferation IC50
Protocol: Non-adherent MOLM-13 human acute myeloid leukemia cells (DSMZ ACC 554) were seeded at a density of 5,000 cells/well in a 96-well multititer plate in 100 μL of growth medium supplemented 10% fetal calf serum. After 24 hours, cell viability of one plate (zero-point plate) was determined with the Cell Titre-Glo Luminescent Cell Viability Assay (Promega), while 50 μL of test compound containing medium was added to the wells of the other plates (final concentrations in the range of 0.001-10 μM and DMSO controls; the final concentration of the solvent dimethyl sulfoxide was 0.5%). Cell viability was assessed after 72-hour exposure with the Cell Titre-Glo Luminescent Cell Viability Assay (Promega).

[4] = In vitro metabolic stability in rat hepatocytes (Method 5); format: in vitro ADME, Han Wistar rat; settings: 1 μM test compound
Protocol: 5. Investigation of In Vitro Metabolic Stability in Rat Hepatocytes
Hepatocytes from Han Wistar rats were isolated via a 2-step perfusion method. After perfusion, the liver was carefully removed from the rat: the liver capsule was opened and the hepatocytes were gently shaken out into a Petri dish with ice-cold Williams medium E (purchased from Sigma Aldrich Life Science, St Louis, Mo.). The resulting cell suspension was filtered through sterile gaze in 50 ml falcon tubes and centrifuged at 50×g for 3 min at room temperature. The cell pellet was resuspended in 30 ml WME and centrifuged through a Percoll® gradient for 2 times at 100×g. The hepatocytes were washed again with Williams' medium E (WMA) and resuspended in medium containing 5% Fetal calf serum (FCS, purchased from Invitrogen, Auckland, NZ). Cell viability was determined by trypan blue exclusion.
For the metabolic stability assay liver cells were distributed in WME containing 5% FCS to glass vials at a density of 1.0×10^6 vital cells/ml. The test compound was added to a final concentration of 1 μM. During incubation, the hepatocyte suspensions were continuously shaken and aliquots were taken at 2, 8, 16, 30, 45 and 90 min, to which equal volumes of cold acetonitrile were immediately added. Samples were frozen at −20° C. over night, after subsequently centrifuged for 15 minutes at 3000 rpm and the supernatant was analyzed with an Agilent 1200 HPLC-system with LCMS/MS detection.
The half-life of a test compound was determined from the concentration-time plot. From the half-life the intrinsic clearances were calculated. Together with the additional parameters liver blood flow, amount of liver cells in vivo and in vitro.

CDK9/CycT1 [5] = target: T1, CDK9/CycT1 (Homo sapiens (Human), UniProt P50750); experiment: CDK9/CycT1 kinase assay (Method 1a); format: biochemical; settings: for Selectivity CDK9/CDK2: derived from Methods 1a. and 2.; for IC50: 10 μM ATP
T1 sequence (P50750 whole entry): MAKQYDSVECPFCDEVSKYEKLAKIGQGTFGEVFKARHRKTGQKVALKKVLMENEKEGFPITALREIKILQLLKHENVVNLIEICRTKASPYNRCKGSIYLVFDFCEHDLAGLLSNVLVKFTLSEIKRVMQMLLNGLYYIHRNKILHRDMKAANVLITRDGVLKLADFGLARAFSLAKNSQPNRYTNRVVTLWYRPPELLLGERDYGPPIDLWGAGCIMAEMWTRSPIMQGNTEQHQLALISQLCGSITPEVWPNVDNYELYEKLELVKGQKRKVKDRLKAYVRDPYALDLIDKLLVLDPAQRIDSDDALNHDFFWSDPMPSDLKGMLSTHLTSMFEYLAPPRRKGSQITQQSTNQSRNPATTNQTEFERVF
T1 sequence (O60563 whole entry partner): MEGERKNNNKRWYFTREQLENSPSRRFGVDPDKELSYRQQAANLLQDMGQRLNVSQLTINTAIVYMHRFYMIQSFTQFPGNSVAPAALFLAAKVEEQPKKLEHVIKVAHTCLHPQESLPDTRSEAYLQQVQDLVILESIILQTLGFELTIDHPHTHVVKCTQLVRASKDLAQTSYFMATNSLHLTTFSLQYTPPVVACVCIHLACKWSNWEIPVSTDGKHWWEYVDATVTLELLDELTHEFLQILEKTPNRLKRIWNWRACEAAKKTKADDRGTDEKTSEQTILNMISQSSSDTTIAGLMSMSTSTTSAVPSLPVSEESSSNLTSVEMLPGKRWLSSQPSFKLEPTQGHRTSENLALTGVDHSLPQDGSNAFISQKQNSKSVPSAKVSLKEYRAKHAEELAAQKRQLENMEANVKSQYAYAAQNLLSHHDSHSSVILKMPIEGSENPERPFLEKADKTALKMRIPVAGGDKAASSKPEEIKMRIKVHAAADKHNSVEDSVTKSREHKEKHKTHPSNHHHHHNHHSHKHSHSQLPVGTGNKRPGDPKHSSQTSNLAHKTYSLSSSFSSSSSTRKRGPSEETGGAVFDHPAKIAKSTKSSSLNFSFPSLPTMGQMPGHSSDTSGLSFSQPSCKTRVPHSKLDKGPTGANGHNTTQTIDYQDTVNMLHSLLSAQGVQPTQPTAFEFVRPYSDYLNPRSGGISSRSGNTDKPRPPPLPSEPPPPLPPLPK
Description: 1a. CDK9/CycT1 Kinase Assay:
CDK9/CycT1-inhibitory activity of compounds of the present invention was quantified employing the CDK9/CycT1 TR-FRET assay as described in the following paragraphs:
(§2) Recombinant full-length His-tagged human CDK9 and CycT1, expressed in insect cells and purified by Ni-NTA affinity chromatography, were purchased from Invitrogen (Cat. No PV4131). As substrate for the kinase reaction biotinylated peptide biotin-Ttds-[…] (C-terminus in amid form) was used which can be purchased e.g. form the company JERINI Peptide Technologies (Berlin, Germany).
(§3) For the assay 50 nl of a 100 fold concentrated solution of the test compound in DMSO was pipetted into a black low volume 384 well microtiter plate (Greiner Bio-One, Frickenhausen, Germany), 2 μl of a solution of CDK9/CycT1 in aqueous assay buffer [50 mM Tris/HCl pH 8.0, 10 mM MgCl2, 1.0 mM dithiothreitol, 0.1 mM sodium ortho-vanadate, 0.01% (v/v) Nonidet-P40 (Sigma)] were added and the mixture was incubated for 15 min at 22° C. to allow pre-binding of the test compounds to the enzyme before the start of the kinase reaction. […] The concentration of CDK9/CycT1 was adjusted depending of the activity of the enzyme lot and was chosen appropriate to have the assay in the linear range, typical concentrations were in the range of 1 μg/ml.
(§4) The resulting mixture was incubated 1 h at 22° C. to allow the formation of complex between the phosphorylated biotinylated peptide and the detection reagents. Subsequently the amount of phosphorylated substrate was evaluated by measurement of the resonance energy transfer from the Eu-chelate to the streptavidine-XL. Therefore, the fluorescence emissions at 620 nm and 665 nm after excitation at 350 nm was measured in a HTRF reader, e.g. a Rubystar (BMG Labtechnologies, Offenburg, Germany) or a Viewlux (Perkin-Elmer). The ratio of the emissions at 665 nm and at 622 nm was taken as the measure for the amount of phosphorylated substrate.

CDK2/CycE = CDK2/CycE (Homo sapiens (Human), UniProt P24941); experiment: CDK2/CycE kinase assay (Method 2); format: biochemical; settings: 10 μM ATP
Description: 2. CDK2/CycE Kinase Assay:
CDK2/CycE-inhibitory activity of compounds of the present invention was quantified employing the CDK2/CycE TR-FRET assay as described in the following paragraphs:
Recombinant fusion proteins of GST and human CDK2 and of GST and human CycE, expressed in insect cells (Sf9) and purified by Glutathion-Sepharose affinity chromatography, were purchased from ProQinase GmbH (Freiburg, Germany). As substrate for the kinase reaction biotinylated peptide biotin-Ttds-[…] (C-terminus in amid form) was used which can be purchased e.g. form the company JERINI Peptide Technologies (Berlin, Germany).
as §3, with “CDK2/CycE” for “CDK9/CycT1”, “130 ng/ml.” for “1 μg/ml.”
as §4, with “TR-FRET” for “HTRF”

CDK9/CycT1 [6] = target: T1, CDK9/CycT1; experiment: CDK9/CycT1 high ATP kinase assay (Method 1b); format: biochemical; settings: 2 mM ATP
Protocol: 1b. CDK9/CycT1 High ATP Kinase Assay
CDK9/CycT1-inhibitory activity of compounds of the present invention at a high ATP concentration after preincubation of enzyme and test compounds was quantified employing the CDK9/CycT1 TR-FRET assay as described in the following paragraphs.
as §2, with “were purchase” for “were purchased”, “JERINI peptide technologies” for “JERINI Peptide Technologies”
as §3, with “of 0.5” for “of 1”
as §4

Row | IC50 [1] [µM] | IC50 ([2]; Homo sapiens, 96 h) [µM] | IC50 ([3]; Homo sapiens, MOLM-13, 72 h) [µM] | maximal calculated oral bioavailability (Fmax) based on stability data in rat Hepatocytes [4] [%] | Selectivity CDK9/CDK2 (CDK9/CycT1 [5]) | IC50 ([1]; Homo sapiens, A2780, 96 h) [µM] | IC50 (CDK2/CycE) [µM] | IC50 (CDK9/CycT1 [6]) [µM] | IC50 (CDK9/CycT1 [5]) [µM] | IC50 [2] [µM] | IC50 [3] [µM] | Compound
1 | 0.095 | 0.84 | 0.316 | 77 | 72 |  |  |  |  |  |  | CS(=N)(=O)Cc1cc(Nc2ncc(F)c(-c3ccc(F)cc3F)n2)cc(C(F)(F)F)c1 (single isomer, unassigned) [Example 5, 4-(2,4-Difluorophenyl)-5-fluoro-N-{3-[(S-methylsulfonimidoyl)methyl]-5-(trifluoromethyl)phenyl}pyrimidin-2-amine]
2 |  | 1.06 | 0.946 |  | 30 | 1 | 0.47 | 0.334 | 0.015 |  |  | CS(=N)(=O)Cc1cc(Br)cc(Nc2ncc(F)c(-c3ccc(F)cc3F)n2)c1 (single isomer, unassigned) [Example 42, N-{3-Bromo-5-[(S-methylsulfonimidoyl)methyl]phenyl}-4-(2,4-difluorophenyl)-5-fluoropyrimidin-2-amine]
3 | 0.167 |  |  |  | 360 |  | 1.5 | 0.009 | 0.004 | 0.359 | 0.141 | CS(=O)(Cc1cc(Nc2ncc(F)c(-c3ccc(F)cc3F)n2)cc(S(F)(F)(F)(F)F)c1)=NC#N (single isomer, unassigned) [Example 30, {[3-{[4-(2,4-Difluorophenyl)-5-fluoropyrimidin-2-yl]amino}-5-(pentafluoro-λ^6-sulfanyl)benzyl](methyl)oxido-λ^6-sulfanylidene}cyanamide]
4 | 0.3 |  |  | 71 | 50 |  |  |  |  | 0.95 | 0.374 | CS(=N)(=O)Cc1cc(Nc2ncc(F)c(-c3ccc(F)cc3F)n2)cc(C(F)(F)F)c1 (single isomer, unassigned) [Example 6, 4-(2,4-Difluorophenyl)-5-fluoro-N-{3-[(S-methylsulfonimidoyl)methyl]-5-(trifluoromethyl)phenyl}pyrimidin-2-amine]
5 |  | 0.501 | 0.281 |  | 16 | 0.279 | 0.89 | 0.007 | 0.054 |  |  | CS(=N)(=O)Cc1cc(Nc2ncc(F)c(-c3ccc(F)cc3F)n2)cc(S(F)(F)(F)(F)F)c1 (single isomer, unassigned) [Example 31, 4-(2,4-Difluorophenyl)-5-fluoro-N-{3-[(S-methylsulfonimidoyl)methyl]-5-(pentafluoro-λ^6-sulfanyl)phenyl}pyrimidin-2-amine]
6 |  |  | 0.092 |  | 198 | 0.096 | 0.94 | 0.008 | 0.005 | 0.178 |  | CS(=O)(Cc1cc(Nc2ncc(F)c(-c3ccc(F)cc3F)n2)cc(S(F)(F)(F)(F)F)c1)=NC#N (single isomer, unassigned) [Example 29, {[3-{[4-(2,4-Difluorophenyl)-5-fluoropyrimidin-2-yl]amino}-5-(pentafluoro-λ^6-sulfanyl)benzyl](methyl)oxido-λ^6-sulfanylidene}cyanamide]
